The text below walks through data of patent US12329732B2, “Citrulline for treatment of sickle cell crisis” (Vanderbilt University, priority 2017, dated 2025).

SMILES strings stand for the structures. Where “and” joins values, the source holds several entries; their conditions need not be identical. Equal values may be shown once. Read-outs that look alike come from different tables or passages of the source.

One data set relates to NO formation. The conditions noted are these: oral arginine, cited from earlier work.
In a further data set the test system is NO production. The settings on record: acute arginase-induced arginine deficiency; cited from earlier work.
The conditions of data set [1]: children with VOC; cited from earlier work.
The nature of data set [2]: Pharmacokinetics of intravenous bolus citrulline in patients with sickle cell disease. In kind it is in vivo, human. The conditions noted are these: for clearance: iv. On the procedure: (§1) Background: Hemolysis associated nitric oxide (NO) depletion plays a central role in the pathogenesis of vaso-occlusion in sickle cell disease (SCD). Citrulline is an effective NO booster, even during conditions of inflammation and acute arginase-induced arginine deficiency, characteristic of SCD.
(§2) Methods: Each cohort of participants received an intravenous bolus of 20 mg/kg of citrulline over five minutes with dose increments of 10 mg/kg until a target plasma citrulline level of 80 to 100 μmol/L. FIG. 1. Plasma samples were collected at certain time points for pharmacokinetic studies. Adverse events were followed according to the NCI Common Terminology Criteria for Adverse Events (CTCAE).

Data set [3] is described as follows: Plasma arginine level after intravenous bolus citrulline in patients with sickle cell disease. The format is in vivo, human. The settings on record: within one hour of bolus intravenous citrulline 20 mg/kg; all subjects. On the procedure:
as §2

The conditions of data set [4]: normal volunteers; cited from earlier work.
Data set [5] in a line: Safety / adverse events (NCI CTCAE) of intravenous citrulline in patients with sickle cell disease. The format is in vivo, human. As for the experimental part:
as §1, §2

For data set [6] the following is noted: oral twice daily, approximately 0.1 g/kg daily, steady state, cited from earlier work.
The conditions of data set [7]: cited from earlier work.
Data set [8] in a line: Oral citrulline in ICU patients: reaching target citrulline level. The format is in vivo, human. The conditions noted are these: administered orally in an ICU. The source says:
Oral administration of citrulline obligates the citrulline to pass through the gut and then the liver which removes the citrulline. This is due to the absorption of the citrulline from the gut and transport directly to the liver by the hepatic portal vein in the first pass through the patient's system. […] This would require multiple dosing regimen to achieve a therapeutic plasma level of citrulline. Thus, it is preferable for citrulline therapy to administer the active agent in a manner which bypasses the gut.

For data set [9] the following is noted: inhaled, versus placebo; cited from earlier work.
The mark [10] stands for this setting: Average of patients 1-4, 20 mg/kg intravenous bolus.
The mark [11] stands for this setting: bolus intravenous citrulline in patients with SCD.
[12] abbreviates: individual patients, 20 mg/kg intravenous bolus over 5 minutes, 20 mg/kg.

`N=C(N)NCCC[C@H](N)C(=O)O` [arginine]: in the data set on NO formation (normal controls), the “increase of NO formation” value was 68%. Moreover, in the data set on NO formation (steady-state SCD patients, not overcome by higher doses), the “change in NO” value is reported as “paradoxical decrease in NO”. Also, the NO production result in the data set on NO production is on record as “did not increase NO production”. Further, in [1], the pain scores entry is “lowered pain scores” and the parenteral opioid use entry was “reducing parenteral opioid use”.
In [2] (setting [10]), `NC(=O)NCCCC(N)C(=O)O` (centres unmarked) [citrulline, 2-amino-5-(carbamoylamino)pentanoic acid] came in with a Krem of 1.06 h⁻¹ and a V of 0.50 L/kg. Also, the “clearance (in words)” value in data set [2] (setting [11]) is “rapid clearance”. Also, the “mean peak level (plasma citrulline)” value in data set [2] (first cohort of four participants, intravenous bolus infusion of 20 mg/kg) came to 259 µmol/L. For the same compound, the clearance (as a rule, the rate of elimination divided by the concentration) in data set [2] (human, plasma, 20 mg/kg, Average of patients 1-4, 20 mg/kg intravenous bolus) is 8.67 mL/min/kg. The clearance in data set [2] (human, plasma, 20 mg/kg, individual patients, 20 mg/kg intravenous bolus over 5 minutes) is 11.7 mL/min/kg. For the same compound, the concentration at 4 h in data set [2] (human, plasma, 4 hours after the infusion, 20 mg/kg intravenous bolus, read-out: trough level (plasma citrulline)) lay in the range of 20 to 40 µM. For the same compound, in data set [2] (setting [12]), the CL was 8.5 mL/min/kg and 6.83 mL/min/kg and 7.67 mL/min/kg; the Krem was 1.01 1/hr (2×) and 1.34 1/hr and 0.89 1/hr; the V is 0.70 L/kg and 0.38 L/kg and 0.46 L/kg (2×). Moreover, the “rise in arginine level (mean increment)” value in [3] was determined as 182%. Moreover, in the data set with NO production, the NO production result is reported as “increased NO production” and the microcirculatory flow result is “improved microcirculatory flow”. Further, the “circulating arginine concentrations versus oral arginine” value in data set [4] is on record as “increases circulating arginine concentrations more than oral arginine”. Moreover, in [5] (20 mg/kg intravenous bolus, four participants), the other side effects entry was “no other reported side effects”. Also, in [5] (setting [11]), the safety and tolerability entry was “safe and well tolerated”. Moreover, the “transient drop of diastolic blood pressure” value in data set [5] (one subject, within 30 minutes of study drug, no intervention needed) is listed as above 20%. Besides, in [6] (ages 10-18), the symptoms of well-being result is on record as “dramatic improvements”. In data set [6], the plasma arginine levels result is “raised plasma arginine levels”; the “total leukocyte and segmented neutrophil counts” value was “reductions in high total leukocyte and high segmented neutrophil counts toward or to within normal limits”. Further, the “safety and plasma citrulline levels” value in data set [7] (intravenous citrulline (Barr 2007)) is “may be administered safely to increase and maintain plasma citrulline levels”. Moreover, in data set [7] (oral citrulline (Smith 2006)), the “safety and plasma citrulline levels” value is “may be administered safely to increase and maintain plasma citrulline levels”. Besides, the “patients who met the target level of citrulline” value in data set [8] is on record as 2 out of 3.
For `[N]=O` [iNO, nitric oxide], the “effect on time-to-resolution of vaso-occlusive crisis” value in [9] is reported as “no effect”.
